In ChEMBL document CHEMBL1201862, “PubChem BioAssay data set” (2004):
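Method: 48-hour compound exposure of cells in 96-well plates, five concentrations, linear interpolation of endpoints. At the GI50, growth is halved.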 Activity calls are given as the source filed them. Cut-off read from the data, not from the text of the source: active = GI50 up to about 1.1 µM and inactive = higher.

Tests used:
Test in all cases: NCI-60 cell line screen, 48 h
DLD-1 = test system: DLD-1
KM-20L2 = test system: KM-20L2
SNB-78 = test system: SNB-78
DMS-273 = test system: DMS-273
LXFL 529 = test system: LXFL 529
RXF 631 = test system: RXF 631
BT-549 = test system: BT-549
PC-3 = test system: PC-3

Compound | GI50 (DLD-1) | GI50 (KM-20L2) | GI50 (SNB-78) | GI50 (DMS-273) | GI50 (LXFL 529) | GI50 (RXF 631) | GI50 (BT-549) | GI50 (PC-3)
C=CC1(C)CC(=O)C2(O)C(C)(O1)C(OC(C)=O)C(O)C1C(C)(C)CCC(O)C12C (stereo not drawn) | > 150 µM (inactive) | 110 µM (inactive) | 5.4 µM (inactive) | > 139 µM (inactive) | > 100 µM (inactive) | > 100 µM (inactive) | – | –
CCCCCCCCCCCCCC(=O)NO | 13.2 µM (inactive) | 7.64 µM (inactive) | 19.8 µM (inactive) | 14.3 µM (inactive) | 5.14 µM (inactive) | 10.9 µM (inactive) | 1.16 µM (inactive) | 4.32 µM (inactive)
O=[N+]([O-])c1c(/C=N/Nc2ccccc2)oc(-c2ccc3c(c2)OCO3)c1-c1ccc2c(c1)OCO2 | 5.73 µM (inactive) | 2.24 µM (inactive) | – | – | 0.746 µM (active) | 65.8 µM (inactive) | – | –
C=C(C)[C@H]1CC[C@@]2(C)C(C1)[C@H](C)CC[C@@H]2O (stereo partly drawn) | > 100 µM (inactive) | > 100 µM (inactive) | > 100 µM (inactive) | > 100 µM (inactive) | > 100 µM (inactive) | > 100 µM (inactive) | – | –
Cc1cnc2c(c1)C(=O)C1=C(OC(C)(C)CC1O)C2=O (stereo not drawn) | 16 µM (inactive) | 17.7 µM (inactive) | – | 11.9 µM (inactive) | 16.2 µM (inactive) | > 10 µM (inactive) | – | –
NC1=C(NC(=O)Cc2ccc(F)cc2)C(=O)c2ccccc2C1=O | > 33.3 µM (inactive) | > 100 µM (inactive) | 26.1 µM (inactive) | 33.1 µM (inactive) | > 100 µM (inactive) | > 60.4 µM (inactive) | – | –
CCC(=O)OC[n+]1ccc2c(C)c3[nH]c4ccccc4c3c(C)c2c1 | 0.229 µM (active) | 0.504 µM (active) | 1.29 µM (inactive) | – | 0.413 µM (active) | 0.504 µM (active) | – | –
O=C(c1ccccc1)C1CCCCN1C(=O)c1ccccc1 (stereo not drawn) | > 100 µM (inactive) | > 100 µM (inactive) | > 100 µM (inactive) | > 100 µM (inactive) | > 100 µM (inactive) | – | – | –
C=CCNC1=NC(=O)C(CC(=O)Nc2ccc([N+](=O)[O-])cc2[N+](=O)[O-])S1 (stereo not drawn) | > 100 µM (inactive) | > 100 µM (inactive) | > 100 µM (inactive) | > 100 µM (inactive) | > 100 µM (inactive) | > 100 µM (inactive) | – | –
N#CC1C(C#N)C2(c3ccccc3)C(c3ccccc3)=NN(c3ccccc3)CC12 (stereo not drawn) | > 100 µM (inactive) | > 100 µM (inactive) | > 100 µM (inactive) | > 100 µM (inactive) | > 100 µM (inactive) | – | – | –
O=C(O)c1ccc(C2=Cc3cc(Cl)ccc3OC2)cc1 | > 100 µM (inactive) | > 100 µM (inactive) | > 100 µM (inactive) | > 100 µM (inactive) | > 100 µM (inactive) | – | – | –
CC(C)(C)OC(=O)N1N=NC2C3OC(CC3=O)C21 (stereo not drawn) | > 100 µM (inactive) | > 100 µM (inactive) | > 100 µM (inactive) | > 100 µM (inactive) | > 100 µM (inactive) | > 100 µM (inactive) | – | –
O=C(OCC1CO1)c1cccs1 (stereo not drawn) | > 100 µM (inactive) | > 100 µM (inactive) | > 100 µM (inactive) | > 100 µM (inactive) | > 100 µM (inactive) | > 100 µM (inactive) | – | –
CC1=C(C(=O)Nc2ccccc2)C(c2cc(Cl)cc(Cl)c2)C(C(=O)Nc2ccccc2)=C(C)N1 | 4.14 µM (inactive) | 9.06 µM (inactive) | 17.1 µM (inactive) | 10.2 µM (inactive) | 3.77 µM (inactive) | 18 µM (inactive) | – | –
CNC(=S)NNC(=O)c1c(C)nc2sccn12 | > 100 µM (inactive) | > 100 µM (inactive) | – | > 100 µM (inactive) | > 100 µM (inactive) | > 100 µM (inactive) | – | –
Cc1ccccc1-c1c(N)nc(N)nc1C(=O)Nc1nccs1 | > 100 µM (inactive) | > 100 µM (inactive) | > 100 µM (inactive) | > 100 µM (inactive) | > 100 µM (inactive) | > 100 µM (inactive) | – | –
COC(C(=O)NCCCCNC(=O)C(OC)c1ccccc1)c1ccccc1 (stereo not drawn) | > 100 µM (inactive) | > 100 µM (inactive) | > 100 µM (inactive) | > 100 µM (inactive) | > 100 µM (inactive) | > 100 µM (inactive) | – | –
COc1cc(/C=C\c2ccc(O)cc2)cc(OC)c1OC | > 100 µM (inactive) | 33.3 µM (inactive) | 3.96 µM (inactive) | 0.35 µM (active) | 4.18 µM (inactive) | – | – | –
Cn1cnc([N+](=O)[O-])c1Sc1nc2ccccc2s1 | 5.07 µM (inactive) | 10.4 µM (inactive) | 12.7 µM (inactive) | 1.36 µM (inactive) | 10.5 µM (inactive) | 4.84 µM (inactive) | – | –
CC12CCC(CC1)C(C)(C)O2 [EUCALYPTOL] | 25.9 µM (inactive) | 38.8 µM (inactive) | 67.6 µM (inactive) | 3.56 µM (inactive) | > 100 µM (inactive) | > 100 µM (inactive) | – | –
